Here are results for 1 compound from patent US11752161B2, “Pharmaceutical compositions, method of making and method of using thereof” (Gannex Pharma Co., Ltd., priority 2020, dated 2023).

Molecules are shown by their SMILES.

For orientation: solubility means the dissolved amount per volume that the medium holds. Low readings indicate a poorly soluble substance, high ones a readily soluble substance.

The nature of this series: Solubility of the compound of Formula (I) in aqueous media without surfactant. It counts as physicochemical. Particulars: aqueous buffer; hydrochloric acid solution, buffer, and water without surfactant, 37° C., pH 1.0˜9.0. As for the experimental part:
The very low solubility limits its use in the development as a drug candidate. Chinese patent application 202010105909.9 reports a semi-solid capsule technology that can substantially increase the dissolution of the compound shown in Formula (I), but the capsule needs to be stored in a cool place below room temperature, not exceeding 15° C., specifically in a closed container at 2 to 8° C.

Compound `Cc1cc(OC[P@@]2(=O)OCC[C@@H](c3cccc(Cl)c3)O2)cc(C)c1Cc1ccc(O)c(C(C)C)c1` [Formula (I) compound] had a solubility of under 0.5 ng/mL.
